From DBAASP
In brackets after ≈: the same amount, converted by molar mass. Blank lines part the entries; values can stand above or below the compound they belong to.

Legend:
Test in all cases: ≥ marks a high value that may be exact or a test limit, other limits are often not marked, values filed in µg/mL are converted to µM
[1] = tested on: Pseudomonas aeruginosa Ps4
Leuconostoc lactis = tested on: Leuconostoc lactis
Listeria innocua = tested on: Listeria innocua
Enterococcus faecalis = tested on: Enterococcus faecalis
Escherichia coli = tested on: Escherichia coli
Micrococcus luteus = tested on: Micrococcus luteus
Bacillus cereus = tested on: Bacillus cereus
[2] = tested on: Staphylococcus epidermidis
Pasteurella multocida = tested on: Pasteurella multocida
Streptococcus uberis = tested on: Streptococcus uberis
Staphylococcus aureus = tested on: Staphylococcus aureus
[3] = tested on: Staphylococcus epidermidis DSM 1798
[4] = tested on: Pseudomonas aeruginosa DSM 1117
[5] = tested on: Escherichia coli DSM 1103
[6] = tested on: Staphylococcus aureus DSM 1104
[7] = tested on: Staphylococcus aureus ATCC 12600
[8] = tested on: Escherichia coli ATCC 11775
[9] = tested on: Staphylococcus aureus ATCC 9144
[10] = tested on: Corynebacterium glutamicum ATCC 13032
[11] = tested on: Pseudomonas aeruginosa ATCC 27853
[12] = tested on: Escherichia coli ATCC 25922
[13] = tested on: Mycobacterium tuberculosis H37Rv
[14] = tested on: Staphylococcus aureus ATCC 29213
[15] = tested on: Salmonella enterica subsp. enterica serovar Typhimurium ATCC 14028
[16] = tested on: Bacillus cereus ATCC 11778
[17] = tested on: Klebsiella aerogenes ATCC 13048

MIC [1]: ≥ 186 µM
SMILES: CC[C@H](C)[C@H](NC(=O)[C@H](CC(N)=O)NC(=O)[C@H](CCCN=C(N)N)NC(=O)[C@H](C)NC(=O)[C@H](Cc1c[nH]c2ccccc12)NC(=O)[C@@H](N)Cc1ccccc1)C(=O)N[C@@H](CCCN=C(N)N)C(=O)N[C@@H](CCCCN)C(=O)N[C@H](C(=O)N[C@@H](CCCN=C(N)N)C(N)=O)C(C)C [FWARNIRKVR]

MIC (Leuconostoc lactis): 23.3 µM (≈ 50 µg/mL)
MIC (Listeria innocua): ≥ 46.6 µM
MIC (Enterococcus faecalis): ≥ 46.6 µM
MIC (Escherichia coli): > 46.6 µM
MIC (Micrococcus luteus): ≥ 46.6 µM
MIC (Bacillus cereus): ≥ 46.6 µM
MIC [2]: ≥ 46.6 µM
MIC (Pasteurella multocida): ≥ 46.6 µM
MIC (Streptococcus uberis): ≥ 46.6 µM
MIC (Staphylococcus aureus): > 46.6 µM
SMILES: CC[C@H](C)[C@H](NC(=O)[C@H](C)NC(=O)[C@@H]1CCCN1C(=O)[C@@H](NC(=O)[C@@H](NC(=O)[C@H](Cc1cnc[nH]1)NC(=O)[C@H](C)NC(=O)[C@H](C)NC(=O)[C@@H](NC(=O)[C@H](CCCCN)NC(=O)[C@H](C)NC(=O)[C@H](CC(C)C)NC(=O)[C@@H](NC(=O)CNC(=O)[C@H](Cc1ccccc1)NC(=O)[C@H](CC(C)C)NC(=O)CN)C(C)C)C(C)C)C(C)C)C(C)C)C(=O)N[C@@H](C)C(=O)N[C@@H](CCC(=O)O)C(=O)N[C@@H](Cc1cnc[nH]1)C(=O)N[C@@H](Cc1ccccc1)C(=O)O [GLFGVLAKVAAHVVPAIAEHF]

MIC [3]: ≥ 117 µM
MIC [4]: ≥ 117 µM
MIC [5]: ≥ 117 µM
MIC [6]: ≥ 117 µM
SMILES: CC[C@H](C)[C@H](NC(=O)CNC(=O)[C@@H](NC(=O)[C@H](C)N)C(C)C)C(=O)NCC(=O)N[C@@H](C)C(=O)N[C@@H](CC(C)C)C(=O)N[C@@H](Cc1ccccc1)C(=O)N[C@@H](CC(C)C)C(=O)NCC(=O)N[C@@H](Cc1ccccc1)C(=O)N[C@@H](CC(C)C)C(=O)NCC(=O)N[C@@H](C)C(=O)N[C@@H](C)C(=O)NCC(=O)N[C@@H](CO)C(=O)N[C@H](C(=O)N[C@@H](CCSC)C(=O)NCC(=O)N[C@@H](C)C(=O)N[C@@H](CCCN=C(N)N)C(=O)N[C@@H](CO)C(N)=O)[C@@H](C)O [AVGIGALFLGFLGAAGSTMGARS]

MIC [7]: 12.5 µM (≈ 27.5 µg/mL)
MIC [8]: 25 µM (≈ 55.1 µg/mL)
SMILES: CC[C@H](C)[C@@H]1NC(=O)[C@H](CC(C)C)NC(=O)[C@@H](NC(=O)[C@H](Cc2ccccc2)NC(=O)[C@H](CC(C)C)NC(=O)[C@H](CCCCN)NC(=O)[C@@H]2CCCN2C(=O)[C@H](CC(C)C)NC(=O)[C@H](C)NC(=O)[C@H](C)NC(=O)[C@H](CC(C)C)NC(=O)[C@H](C)NC(=O)[C@H](CC(C)C)NC(=O)[C@H](CO)NC(=O)[C@H](CC(C)C)NC(=O)[C@@H](N)CC(C)C)CSSC[C@@H](C(=O)O)NC(=O)[C@H](CCCCN)NC(=O)[C@H](CCCCN)NC(=O)[C@H](Cc2ccccc2)NC1=O [LLSLALAALPKLFCLIFKKC]

MIC [3]: 2 µM (≈ 4.46 µg/mL)
MIC [4]: 26 µM (≈ 58 µg/mL)
MIC [5]: 6 µM (≈ 13.4 µg/mL)
MIC [6]: 3 µM (≈ 6.69 µg/mL)
SMILES: CC[C@H](C)[C@H](NC(=O)[C@H](CCCN=C(N)N)NC(=O)CNC(=O)[C@H](C)NC(=O)[C@@H](NC(=O)[C@H](CCCN=C(N)N)NC(=O)[C@H](C)NC(=O)[C@@H](NC(=O)[C@H](CCCN=C(N)N)NC(=O)CNC(=O)[C@H](C)NC(=O)[C@@H](NC(=O)[C@H](CCCN=C(N)N)NC(=O)[C@H](C)NC(=O)[C@@H](NC(=O)[C@H](CCCN=C(N)N)NC(=O)CNC(=O)[C@H](C)NC(=O)[C@@H](NC(=O)[C@@H](N)CCCN=C(N)N)[C@@H](C)CC)[C@@H](C)CC)[C@@H](C)CC)[C@@H](C)CC)[C@@H](C)CC)C(=O)N[C@@H](C)C(N)=O [RIAGRIARIAGRIARIAGRIA]

MIC [1]: ≥ 180 µM
SMILES: CC[C@H](C)[C@H](NC(=O)[C@H](CC(N)=O)NC(=O)[C@H](CCCN=C(N)N)NC(=O)[C@H](CC(C)C)NC(=O)[C@H](Cc1c[nH]c2ccccc12)NC(=O)[C@@H](N)Cc1ccccc1)C(=O)N[C@@H](CCCN=C(N)N)C(=O)N[C@@H](CCCCN)C(=O)N[C@H](C(=O)N[C@@H](CCCN=C(N)N)C(N)=O)C(C)C [FWLRNIRKVR]

MIC [9]: ≥ 100 µM
MIC [10]: 3.1 µM (≈ 3.85 µg/mL)
MIC [11]: 25 µM (≈ 31.1 µg/mL)
MIC [12]: 50 µM (≈ 62.2 µg/mL)
SMILES: CC(C)[C@H](NC(=O)[C@@H](NC(=O)[C@H](CCCN=C(N)N)NC(=O)[C@H](CCCN=C(N)N)NC(=O)[C@H](Cc1c[nH]c2ccccc12)NC(=O)[C@H](Cc1c[nH]c2ccccc12)NC(=O)CN)[C@@H](C)O)C(=O)N[C@@H](CCCN=C(N)N)C(=O)N[C@@H](CCCCN)C(N)=O [GWWRRTVRK]

SMILES: CC[C@H](C)[C@H](NC(=O)[C@H](C)NC(=O)CNC(=O)[C@H](C)NC(=O)[C@H](CCCN=C(N)N)NC(=O)[C@H](CO)NC(=O)[C@H](C)NC(=O)[C@H](CCSC)NC(=O)CN)C(=O)N[C@@H](C)C(=O)NCC(=O)N[C@@H](CCCN=C(N)N)C(=O)N[C@H](C(=O)N[C@@H](C)C(=O)N[C@@H](CCCN=C(N)N)C(=O)N[C@H](C(=O)N[C@@H](C)C(=O)N[C@@H](CC(C)C)C(=O)N[C@@H](CCCN=C(N)N)C(=O)N[C@@H](C)C(=O)N[C@@H](CC(C)C)C(N)=O)C(C)C)[C@@H](C)CC [GMASRAGAIAGRIARVALRAL]
MIC [3]: 2 µM (≈ 4.16 µg/mL)
MIC [4]: ≥ 113 µM
MIC [5]: 7 µM (≈ 14.6 µg/mL)
MIC [6]: 4 µM (≈ 8.32 µg/mL)

MIC [1]: ≥ 187 µM
SMILES: CC[C@H](C)[C@H](NC(=O)[C@H](CC(N)=O)NC(=O)[C@H](CCCN=C(N)N)NC(=O)[C@H](CCC(N)=O)NC(=O)[C@H](Cc1c[nH]c2ccccc12)NC(=O)[C@@H](N)Cc1ccccc1)C(=O)N[C@@H](CCCN=C(N)N)C(=O)N[C@@H](CCCCN)C(=O)N[C@H](C(=O)N[C@@H](CO)C(N)=O)C(C)C [FWQRNIRKVS]

MIC [13]: 18.1 µM (≈ 37.5 µg/mL)
SMILES: CC(C)C[C@H](NC(=O)[C@H](Cc1c[nH]c2ccccc12)NC(=O)[C@H](Cc1c[nH]c2ccccc12)NC(=O)[C@H](CCCN=C(N)N)NC(=O)[C@H](CO)NC(=O)[C@H](CC(C)C)NC(=O)[C@H](CCCCN)NC(=O)[C@H](CCCCN)NC(=O)[C@@H](NC(=O)[C@H](C)N)C(C)C)C(=O)N[C@@H](CCCN=C(N)N)C(=O)N[C@@H](Cc1c[nH]c2ccccc12)C(=O)N[C@@H](Cc1c[nH]c2ccccc12)C(=O)N[C@@H](CCCCN)C(=O)N[C@@H](CCCCN)C(=O)O [AVKKLSRWWLRWWKK]

MIC [14]: 33.2 µM (≈ 50 µg/mL)
MIC [15]: 66.5 µM (≈ 99.9 µg/mL)
MIC [16]: ≥ 66.5 µM
MIC [17]: ≥ 66.5 µM
MIC [12]: 33.2 µM (≈ 50 µg/mL)
SMILES: CC[C@H](C)[C@H](N)C(=O)N[C@@H](CC(C)C)C(=O)NCC(=O)N[C@@H](CCCCN)C(=O)N[C@@H](CC(C)C)C(=O)N[C@@H](Cc1c[nH]c2ccccc12)C(=O)N[C@@H](CCC(=O)O)C(=O)NCC(=O)N[C@@H](CC(C)C)C(=O)N[C@@H](CCCCN)C(=O)N[C@@H](CO)C(=O)N[C@@H](CC(C)C)C(=O)N[C@@H](Cc1ccccc1)C(N)=O [ILGKLWEGLKSLF]

MIC [1]: ≥ 165 µM
SMILES: CC[C@H](C)[C@H](NC(=O)[C@H](CCCN=C(N)N)NC(=O)[C@H](Cc1c[nH]c2ccccc12)NC(=O)[C@H](CC(N)=O)NC(=O)[C@H](CCCN=C(N)N)NC(=O)[C@H](CCC(N)=O)NC(=O)[C@H](Cc1c[nH]c2ccccc12)NC(=O)[C@@H](N)Cc1ccccc1)C(=O)N[C@@H](CCCN=C(N)N)C(=O)N[C@@H](CCCN=C(N)N)C(N)=O [FWQRNWRIRR]

MIC [3]: ≥ 122 µM
MIC [4]: ≥ 122 µM
MIC [5]: ≥ 122 µM
MIC [6]: ≥ 122 µM
SMILES: CC(C)C[C@H](NC(=O)[C@H](CCCN=C(N)N)NC(=O)[C@@H](NC(=O)[C@@H]1CCCN1C(=O)[C@@H]1CCCN1C(=O)[C@@H]1CCCN1C(=O)[C@H](CC(C)C)NC(=O)[C@H](CCCN=C(N)N)NC(=O)[C@@H](NC(=O)[C@@H]1CCCN1C(=O)[C@@H]1CCCN1C(=O)[C@@H]1CCCN1C(=O)[C@H](CC(C)C)NC(=O)[C@H](CCCN=C(N)N)NC(=O)[C@@H](N)C(C)C)C(C)C)C(C)C)C(=O)N1CCC[C@H]1C(=O)N1CCC[C@H]1C(=O)N1CCC[C@H]1C(=O)O [VRLPPPVRLPPPVRLPPP]

MIC [1]: ≥ 188 µM
SMILES: CC[C@H](C)[C@H](NC(=O)[C@H](CCCN=C(N)N)NC(=O)[C@@H](NC(=O)[C@H](CCCN=C(N)N)NC(=O)[C@H](CCC(N)=O)NC(=O)[C@H](Cc1c[nH]c2ccccc12)NC(=O)[C@@H](N)Cc1ccccc1)[C@@H](C)CC)C(=O)N[C@@H](CCCN=C(N)N)C(=O)N[C@@H](CCCN=C(N)N)C(N)=O [FWQRIRIRR]
